Test results from patent publication US20210244686A1, “Novel Systems And Methods For The Therapeutic Use of Cannabinoids or Cannabinoid Analogs to Increase The Lipid Order of Cholesterol Containing Cell Membranes” (The Regents of the University of Colorado a body corporate, priority 2018, published 2021).

Key:
SK-N-BE(2) cells [1] = assay: 13C glucose labelled lipidomics of cholesterol biosynthesis; type: cell-based, human; settings: 20 μM CBD, 24 hours
Procedure: These findings raise the question of whether CBD treatment leads to alterations in lipid and cholesterol metabolism (the latter pathway depicted in FIG. 3A). The present inventors used mass spectrometry-based lipidomics, a subset of metabolomics, to quantify the effect of CBD on the fluxes of key lipids and sterols. Vehicle and CBD exposed cells were fed ^13C labeled glucose for 24 hours and harvested using methanol extraction and mass spectrometry analysis. Cholesterol biosynthesis was analyzed by determining the level of incorporation of ^13C into biosynthetic intermediates. […] The effect of CBD on total cellular cholesterol was confirmed using a fluorogenic assay for cholesterol in an orthogonal experiment (FIG. 11B).
Cultured cells were harvested, washed with PBS, flash frozen, and stored at −80 C. until analysis. Prior to LC-MS analysis, samples were placed on ice and re-suspended with methanol:acetonitrile:water (5:3:2, v/v/v) at a concentration of 2 million cells per ml. Suspensions were vortexed continuously for 30 min at 4° C. Insoluble material was removed by centrifugation at 10,000 g for 10 min at 4° C. and supernatants were isolated for metabolomics analysis by UHPLC-MS. This method was used for cholesterol precursors and free headgroups. […]

SK-N-BE(2) cells [2] = assay: cells; type: cell-based, human
Procedure: To efficiently design the multi-omics experiments, the present inventors exposed the neuroblastoma cell line SK-N-BE(2) to escalating doses of CBD at 24, 48, and 72 hours and determined the EC50 of toxicity of CBD to be greatest at 72 hours and at an approximate concentration of 20 μM (FIG. 1 B). To maximize the efficient use of the inventor's multi-omic resources, a large dose and time survey of the CBD response was conducted in a panel of transgenic SK-N-BE(2) and HaCaT keratinocyte cell lines, each expressing a genetically encoded förster resonance energy transfer (FRET) biosensor gene capable of reporting the activity of a cellular effector molecule/activity including, but not limited to: AMP kinase activity, Erk kinase activity, cytosolic ATP, glucose, lactate, pyruvate & glutamine, Ca^2+ in the ER & Cytosol, mTor kinase activity & TACE protease activity. […] The biosensor activity profiles as a function of CBD dose and time (FIGS. 9A-C) were analyzed for the EC50 of each biosensor activity at each time (FIG. 10). The result of these efforts outlined that the most robust dose of CBD for use in multi-omic experiments is 20 μM and that the kinetic profile of the CBD response begins in hours and persists for days.

C=C(C)[C@@H]1CCC(C)=C[C@H]1c1c(O)cc(CCCCC)cc1O [CBD, cannabidiol]
labeled and total cholesterol (SK-N-BE(2) cells [1]): decrease
total and isotopically-labeled levels of cholesterol precursors (SK-N-BE(2) cells [1]): accumulate
EC50 (SK-N-BE(2) cells [2]; Homo sapiens, SKNBE2, SK-N-BE(2), greatest at 72 hours, approximate, read-out: EC50 of toxicity): ~20 µM
doses that can induce cell death (SK-N-BE(2) cells [2]; after 24 hours): > 40 µM
